Laboratory results as given in patent publication US20250026796A1 (priority 2022, published 2025).

Target: SARS-CoV-2 E (2E) (Severe acute respiratory syndrome coronavirus 2, UniProt P0DTC4)
Assay type: cell-based

Sequence of SARS-CoV-2 E (2E) (P0DTC4 whole entry, looked up): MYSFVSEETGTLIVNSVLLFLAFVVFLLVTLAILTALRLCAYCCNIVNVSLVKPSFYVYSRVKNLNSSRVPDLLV

MYSFVSEETGTLIVNSVL [MY18]
Relative fluorescent intensity of DND-189 dye (proton homeostasis): significantly restores the proton homeostasis
